Measurements as given in paper PMC12467246, “Characterization of the Anticholinesterase and Antioxidant Properties of Phytochemicals from Moringa oleifera as a Potential Treatment for Alzheimer’s Disease” (Biomedicines, 2025).
Like-named read-outs stand apart in the source and are kept apart here.

Tests used:
[1] = Lipid peroxidation inhibition (LPI) assay; design: species or system bovine; conditions: sodium nitroprusside as pro-oxidant, 37 °C 2 h, MDA at 532 nm
[2] = Hydroxyl radical-scavenging assay; conditions: Fenton reaction, 45 min 37 °C, 532 nm
[3] = ABTS radical-scavenging assay; conditions: 5 min in the dark, 750 nm
[4] = biological target: T1, butyrylcholinesterase from horse (equine) serum (esBuChE) (Equus caballus, UniProt P81908); assay: biochemical
T1 construct: butyrylcholinesterase from horse (equine) serum (esBuChE); purchased Sigma C7512; host or cells: horse serum

[5] = biological target: human acetylcholinesterase (hAChE) (Homo sapiens, UniProt P22303); assay: biochemical
[6] = Nitric oxide (NO) radical-scavenging assay; conditions: sodium nitroprusside, 2.5 h 25 °C, Griess reagent, 540 nm
[7] = biological target: T2, human butyrylcholinesterase (hBuChE) (Homo sapiens, UniProt P06276); assay: biochemical
T2 construct: purchased Sigma B4186

[8] = Ferric reducing antioxidant power (FRAP) assay; conditions: 700 nm
[9] = DPPH free radical-scavenging assay; conditions: 37 °C, 40 min, 517 nm
[10] = tested on: hAChE; design: method as in PMID 32746727; conditions: ref [59]; read-out: IC50 against hAChE; cited from earlier work
[11] = tested on: BuChE; conditions: ref [55],[56],[57]; cited from earlier work
[12] = tested on: AChE; conditions: ref [55],[56],[57]; cited from earlier work
[13] = tested on: BuChE; conditions: rat brain homogenates, in vitro; ref [62]; cited from earlier work
[14] = ref [62]; read-out: IC50 values, panel of antioxidant assays; cited from earlier work
[15] = tested on: AChE; conditions: rat brain homogenates, in vitro; ref [62]; cited from earlier work

T2 sequence (P06276 29-602): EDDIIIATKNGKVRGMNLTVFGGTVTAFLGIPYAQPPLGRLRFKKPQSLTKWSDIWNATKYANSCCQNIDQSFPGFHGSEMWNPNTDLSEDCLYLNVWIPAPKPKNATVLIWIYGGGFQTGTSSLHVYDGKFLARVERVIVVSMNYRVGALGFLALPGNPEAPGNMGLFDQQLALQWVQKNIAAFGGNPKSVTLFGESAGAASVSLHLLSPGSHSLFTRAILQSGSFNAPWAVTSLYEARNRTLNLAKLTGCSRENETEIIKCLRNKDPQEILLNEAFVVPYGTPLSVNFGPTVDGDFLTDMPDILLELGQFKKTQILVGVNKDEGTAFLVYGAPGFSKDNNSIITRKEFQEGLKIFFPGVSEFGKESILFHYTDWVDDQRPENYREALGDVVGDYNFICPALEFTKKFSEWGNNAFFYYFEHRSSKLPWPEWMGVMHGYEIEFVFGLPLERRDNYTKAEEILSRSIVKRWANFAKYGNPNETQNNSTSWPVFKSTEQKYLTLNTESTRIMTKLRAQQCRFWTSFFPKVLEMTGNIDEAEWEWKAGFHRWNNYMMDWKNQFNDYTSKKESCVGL
Chain of human acetylcholinesterase (hAChE) (P22303 32-614): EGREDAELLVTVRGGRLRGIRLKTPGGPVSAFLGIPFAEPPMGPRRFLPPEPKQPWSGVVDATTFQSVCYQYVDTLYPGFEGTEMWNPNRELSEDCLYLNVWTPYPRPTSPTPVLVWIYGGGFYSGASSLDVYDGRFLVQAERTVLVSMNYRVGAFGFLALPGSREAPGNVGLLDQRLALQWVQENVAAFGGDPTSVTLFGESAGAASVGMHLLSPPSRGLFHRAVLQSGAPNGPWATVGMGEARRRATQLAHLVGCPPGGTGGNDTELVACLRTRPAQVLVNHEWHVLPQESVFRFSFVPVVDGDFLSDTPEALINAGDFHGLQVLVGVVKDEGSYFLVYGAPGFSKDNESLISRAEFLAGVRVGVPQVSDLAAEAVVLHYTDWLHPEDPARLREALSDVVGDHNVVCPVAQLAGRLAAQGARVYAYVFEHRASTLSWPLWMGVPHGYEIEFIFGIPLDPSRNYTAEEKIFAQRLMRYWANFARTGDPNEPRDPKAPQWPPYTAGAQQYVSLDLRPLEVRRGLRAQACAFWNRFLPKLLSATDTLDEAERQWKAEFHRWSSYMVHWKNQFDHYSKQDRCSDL
T1 sequence (P81908 whole entry): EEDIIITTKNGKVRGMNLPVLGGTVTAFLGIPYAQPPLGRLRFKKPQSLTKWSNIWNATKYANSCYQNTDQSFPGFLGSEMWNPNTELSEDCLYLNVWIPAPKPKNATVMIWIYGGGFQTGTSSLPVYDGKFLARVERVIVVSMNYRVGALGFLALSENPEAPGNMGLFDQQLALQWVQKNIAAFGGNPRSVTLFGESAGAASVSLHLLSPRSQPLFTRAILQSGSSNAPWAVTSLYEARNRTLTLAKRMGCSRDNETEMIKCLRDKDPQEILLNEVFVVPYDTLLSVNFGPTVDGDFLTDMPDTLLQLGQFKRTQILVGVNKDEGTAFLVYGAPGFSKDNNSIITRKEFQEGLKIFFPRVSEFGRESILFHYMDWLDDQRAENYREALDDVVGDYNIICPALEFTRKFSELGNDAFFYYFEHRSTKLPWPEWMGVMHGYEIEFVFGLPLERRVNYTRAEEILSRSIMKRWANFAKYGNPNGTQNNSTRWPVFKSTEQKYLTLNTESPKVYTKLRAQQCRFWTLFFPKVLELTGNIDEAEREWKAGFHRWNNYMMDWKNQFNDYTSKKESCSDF

| SMILES | EC50 [1] [µM] | EC50 [2] [µM] | EC50 [3] [µM] | IC50 ([5]; read-out: Enzyme IC50 hAChE) [µM] | EC50 [6] [µM] | EC50 [8] [µM] | EC50 [9] [µM] | IC50 [4] [µM] | IC50 [7] [µM] | further results |
| --- | --- | --- | --- | --- | --- | --- | --- | --- | --- | --- |
| O=C(C=Cc1ccc(O)c(O)c1)OC1C(O)CC(O)(C(=O)O)CC1O (stereo not drawn) [4-O-caffeoylquinic acid] | 207 ± 63 | 120 ± 30 | 382 ± 44 | 782 ± 106 | 125 ± 30 | 1290 ± 45 | 431 ± 28 | – | – | IC50 ([4]; read-out: Enzyme IC50 esBuChE): 903 ± 139 µM; IC50 ([7]; read-out: Enzyme IC50 hBuChE): 770 ± 116 µM |
| O=C(/C=C/c1ccc(O)c(O)c1)O[C@@H]1C[C@](O)(C(=O)O)C[C@@H](O)[C@H]1O [Chlorogenic acid] | – | – | – | > 1000 | – | – | – | – | – | IC50 ([4]; read-out: Enzyme IC50 esBuChE): > 1000 µM; IC50 [10]: 410 µM; IC50 ([7]; read-out: Enzyme IC50 hBuChE): > 1000 µM |
| CCN(CC)C(C)CN1c2ccccc2Sc2ccccc21 (stereo not drawn) [Ethopropazine, reference compound] | – | – | – | – | – | – | – | 0.01 | 13.8 ± 0.8 | – |
| O=C(O)c1cc(O)c(O)c(O)c1 [Gallic acid, reference compound] | 372 ± 33 | 80 ± 23 | 53 ± 15 | – | 972 ± 107 | 1240 ± 49 | 86 ± 15 | – | – | – |
| O=C1O[C@H]([C@@H](O)CO)C(O)=C1O [L-Ascorbic acid, L-ascorbic acid, reference compound] | 182 ± 24 | – | 526 ± 110 | – | 720 ± 127 | – | – | – | – | – |
| O=c1c(O[C@@H]2O[C@H](CO)[C@@H](O)[C@H](O)[C@H]2O)c(-c2ccc(O)c(O)c2)oc2cc(O)cc(O)c12 [Quercetin 3-β-D-glucoside, quercetin 3-β-D-glucoside] | 673 ± 165 | 55 ± 12 | 436 ± 32 | 971 ± 157 | 261 ± 77 | 1780 ± 107 | 224 ± 27 | > 1000 | 931 ± 49 | – |
| C[C@@H]1O[C@@H](OC[C@H]2O[C@@H](Oc3c(-c4ccc(O)c(O)c4)oc4cc(O)cc(O)c4c3=O)[C@H](O)[C@@H](O)[C@@H]2O)[C@H](O)[C@H](O)[C@H]1O [Rutin, quercetin-3-rutinoside] | 26 ± 3 | 90 ± 21 | 1720 ± 206 | – | 383 ± 87 | 1940 ± 131 | 305 ± 55 | > 1000 | 761 ± 106 | IC50 [13]: 288 µM; IC50 [5]: > 1000 µM; IC50 [14]: 184 to 938 µM; IC50 [15]: 219 µM |
| Cc1c(C)c2c(c(C)c1O)CC[C@@](C)(CCC[C@H](C)CCC[C@H](C)CCCC(C)C)O2 [α-Tocopherol, α-tocopherol, reference compound] | – | 53 ± 15 | 414 ± 22 | – | 368 ± 34 | – | 369 ± 34 | – | – | – |
